Read-outs that look alike come from different tables or passages of the source.

One series has as its system GAD67. The class given is cell-based, rat. The note with it: whole cell lysates, vs control.
Another series concerns ERK2. Particulars: whole cell lysates, normalized to total ERK2, vs control; for reduction of ERK2 phosphorylation: acute treatment, 15 minutes; for increase of ERK2 phosphorylation: chronic treatment, 7 days.
In series [1] the test system is PKCβ2. The class given is cell-based, rat.
In series [2] the test system is PKC.
The subject of series [3] is PKCβ2. Particulars: rat, in vivo, ip.
The subject of series [4] is PKC. This is another data set of the same source.
The next series relates to GAD67 mRNA. The class given is in vivo, rat. Particulars: rats, 14 days daily IP (haloperidol 1 mg/kg, fluvoxamine 10 mg/kg, clozapine 10 mg/kg); frontal cortex; vs control.
For series [5] the following is noted: rats; haloperidol 1 mg/kg and fluvoxamine 10 mg/kg IP; cited from earlier work.
Series [6] concerns PKCβ2. In kind it is in vivo, rat. The note with it: rats, chronic 14 days IP; frontal cortex; vs control.
For series [7], the system named is negative symptoms of schizophrenia. The note with it: add-on to antipsychotic treatment; clinical studies; cited from earlier work.
Setting [8] is: chronic treatment, 7 days, whole cell lysates, vs control.
[9] abbreviates: rats, chronic 14 days IP, frontal cortex, vs control.
[10] abbreviates: rats, 14 days daily IP (haloperidol 1 mg/kg, fluvoxamine 10 mg/kg, clozapine 10 mg/kg), frontal cortex, vs control.

For the compound `CN1CCN(C2=Nc3cc(Cl)ccc3Nc3ccccc32)CC1` [clozapine], the “decrease of GAD67 protein level” value with GAD67 (acute treatment, 15 minutes) is recorded as 25%; in the series with GAD67 (chronic treatment, 7 days), 73%. Further, the “reduction of ERK2 phosphorylation” value in the series on ERK2 was determined as 67%. Besides, the “increase of ERK2 phosphorylation” value in the series with ERK2 was 87%. For the same compound, the “decrease of PKCβ2 protein level” value with PKCβ2 [1] (acute treatment, 15 minutes, whole cell lysates, vs control) stood at 31%; in the series with PKCβ2 [1] (setting [8]) it was 60%.

For the compound `COCCCC/C(=N\OCCN)c1ccc(C(F)(F)F)cc1` [fluvoxamine], in the series with PKC [2] (rat, in vivo, ip), the “increase of PKC phosphorylation in the membranal fraction” value amounted to 50% and the “increase of PKC phosphorylation in whole lysate” value is reported as 40%. For the same compound, in the series with GAD67 (chronic treatment, 7 days), the “decrease of GAD67 protein level” value amounted to 60%. Also, the “PKCβ2 level, cytosolic compartment” value with PKCβ2 [3] was “reduced level”. Besides, the “increase of PKCβ2 protein level” value in the series with PKCβ2 [1] was “did not affect”. In the series on PKCγ mRNA (rat, in vivo), the “PKCγ mRNA level” value is given as “increased significantly”. Besides, the “PKCβ mRNA level” value with PKCβ mRNA (rat, in vivo) was “increased significantly”. The “increase of PKC phosphorylation level” value in the series with PKC [4] was found to be 156%.

`O=C(CCCN1CCC(O)(c2ccc(Cl)cc2)CC1)c1ccc(F)cc1` [haloperidol]: in the series on PKC [2] (setting [9]), the “increase of PKC phosphorylation in the membranal fraction” value is listed as 45% and the “increase of PKC phosphorylation in whole lysate” value is on record as 38%. Also, the “decrease of GAD67 protein level” value in the series with GAD67 (acute treatment, 15 minutes) was “did not affect”. The “decrease of GAD67 protein level” value in the series with GAD67 (chronic treatment, 7 days) is on record as “did not affect”. In addition, in the series on ERK2, the “reduction of ERK2 phosphorylation” value is “did not alter” and the “increase of ERK2 phosphorylation” value is listed as “did not alter”. Also, the “GAD67 mRNA level” value with GAD67 mRNA is on record as “significantly increased”. Further, the “increase of PKCβ2 protein level” value with PKCβ2 [1] (setting [8]) stood at 106%. Moreover, the “PKCγ mRNA level” value with PKCγ mRNA (setting [10]) is “significantly increased”. The “PKCβ mRNA level” value with PKCβ mRNA (setting [10]) is “significantly increased”. The “brain and serum concentrations when coadministered compared with given individually” value in [5] is given as “not significantly changed”. In the series with PKCβ2 [6], the “PKCβ2 protein level, whole tissue lysate” value is reported as “significantly increased”. Besides, the “increase of PKC phosphorylation level” value with PKC [4] (15 minutes treatment (FIG. 11A), whole cell lysates, normalized to β-actin, vs control) turned out to be 134%.

In the case of `CNCCCC12CCC(c3ccccc31)c1ccccc12` [maprotiline], the “effect on negative symptoms of schizophrenia” value in series [7] is reported as “did not improve negative symptoms”.

The values above are taken from patent US20090208979A1, “Method for identifying antipsychotic drug candidates” (priority 2008, published 2009).
